Peptide text beside a SMILES is read from it.
Key:
[1] = relative to sucrose, by weight ratio; cited from earlier work
[2] = Properties in quality of sweetness compared to sucrose (inventors' findings)
Source text: It is strong in astringency (astringent taste) and badly-balanced for quality of sweetness as compared to sucrose. On the other hand, with respect to APM, its properties for quality of sweetness is weak in early taste, and strong in later taste, although they are not so bad as those in N-(3,3-dimethylbuty)-APM. Therefore, any one of both compounds has the properties for quality of sweetness which is weak in early taste, and strong in later taste, and thus is out of quality of sweetness, taking into account the fact that sucrose is natural in sweetness.

COC(=O)[C@H](Cc1ccccc1)NC(=O)[C@H](CC(=O)O)NCCC(C)(C)C [N-(3,3-dimethylbutyl)-APM, N-[N-(3,3-dimethylbutyl)-L-α-aspartyl]-L-phenylalanine methyl ester]
sweetening potency [1]: 10,000 times by weight ratio that of | quality of sweetness (balance) [2]: badly-balanced | astringency (astringent taste) ([2]; quality of sweetness): strong | early taste (tastes sweet as early as sucrose) ([2]; quality of sweetness): extremely weak | later taste (tastes sweet later than sucrose) ([2]; quality of sweetness): extremely strong

COC(=O)[C@H](Cc1ccccc1)NC(=O)[C@@H](N)CC(=O)O [APM, aspartame] (H-Asp-Phe-OMe)
early taste (tastes sweet as early as sucrose) ([2]; quality of sweetness): weak | later taste (tastes sweet later than sucrose) ([2]; quality of sweetness): strong

From patent US6346642B1, “Mixed crystals comprising aspartame and aspartame derivative and process for producing the same” (Ajinomoto Co., Inc., priority 1997, dated 2002)
